# Assay results from PubChem BioAssay (NCI).
#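 1) Cells in 96-well plates. 2) Compound, 48 h, 5 concentrations. 3) Linear interpolation between surrounding doses. 4) Unreached endpoint = highest concentration. GI50 = concentration required for 50% inhibition of growth. TGI: concentration producing complete growth inhibition.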
# How the values were obtained:
# Assay in all cases: DTP human tumour cell line panel, 48 h
# PC-3 prostate = test system: PC-3 prostate
# SF-539 CNS = test system: SF-539 CNS
# SK-MEL-5 melanoma = test system: SK-MEL-5 melanoma
# UO-31 renal = test system: UO-31 renal
# A549 NSCLC = test system: A549 NSCLC
# UACC-62 melanoma = test system: UACC-62 melanoma
# SN12C renal = test system: SN12C renal
# NCI-H23 lung = test system: NCI-H23 lung
Compound,GI50 (PC-3 prostate),TGI (PC-3 prostate),GI50 (SF-539 CNS),GI50 (SK-MEL-5 melanoma),TGI (SK-MEL-5 melanoma),GI50 (UO-31 renal),TGI (UO-31 renal),GI50 (A549 NSCLC),TGI (A549 NSCLC),GI50 (UACC-62 melanoma),TGI (UACC-62 melanoma),GI50 (SN12C renal),TGI (SN12C renal),TGI (SF-539 CNS),GI50 (NCI-H23 lung),TGI (NCI-H23 lung)
O=C1CC(c2cccc(F)c2)Nc2cc3c(cc21)OCO3 (centres undefined),< 0.01 µM,> 100 µM,< 0.01 µM,< 0.01 µM,< 0.01 µM,< 0.01 µM,> 100 µM,< 0.01 µM,> 100 µM,< 0.01 µM,< 0.01 µM,0.207 µM,> 100 µM,–,–,–
CNC(=O)c1c(NC(=O)c2ccc(C(C)(C)C)cc2)sc2c(CN(C)C)c(O)ccc12,–,–,1.66 µM,1.81 µM,3.25 µM,1.49 µM,2.89 µM,–,–,1.76 µM,3.24 µM,–,–,3.13 µM,–,–
C[C@]12CC[C@H]3[C@@H](CC=C4C[C@@H](N5CCCC5)CC[C@@]43C)[C@@H]1C/C(=C\c1cccc(OCCN3CCOCC3)c1)[C@@H]2O,–,–,1.41 µM,2.88 µM,10.6 µM,3.11 µM,9.97 µM,3.48 µM,45.4 µM,17.6 µM,33.2 µM,25.9 µM,> 100 µM,3.38 µM,13.3 µM,41.6 µM
Cc1cccc2nc3ccccc3c(Nc3ccc(NS(C)(=O)=O)cc3)c12,–,–,10.3 µM,4.91 µM,17.5 µM,2.61 µM,12.4 µM,1.88 µM,12.4 µM,–,–,3.55 µM,15.4 µM,22.8 µM,–,–
COC12C=C/C(=C(/C(=O)OCc3ccccn3)C(=O)CCCCCCCCC3(OC)C=C/C(=C(/C(=O)OCc4ccccn4)C(=O)CCCCCCCC1)O3)O2,0.719 µM,3.98 µM,0.557 µM,0.221 µM,0.492 µM,–,–,0.626 µM,3.49 µM,0.348 µM,1.22 µM,0.356 µM,1.21 µM,3.2 µM,0.249 µM,0.689 µM
O=C(Nc1ccccc1)Nc1ccc2cc3ccc(NC(=O)Nc4ccccc4)cc3nc2c1,–,–,1.63 µM,1.65 µM,3.11 µM,> 100 µM,> 100 µM,11.2 µM,> 100 µM,1.75 µM,3.21 µM,1.34 µM,2.72 µM,3.01 µM,1.48 µM,3.3 µM
CCCCCCCCCCCCCC[N+](C)(C)CCCCCCCCCCCCCC,1.85 µM,4.45 µM,–,–,–,4.44 µM,> 100 µM,–,–,1.89 µM,5.7 µM,–,–,–,2.12 µM,6.13 µM
NCCCC[C@@H]1NC(=O)[C@H](CC(=O)O)NC(=O)CNC(=O)[C@H](CCCN=C(N)N)NC(=O)[C@@H](N)CSSC[C@@H](C(=O)O)NC(=O)[C@H](CC(=O)O)NC(=O)[C@@H]2CCCN2C(=O)CNC1=O,> 100 µM,> 100 µM,> 100 µM,> 100 µM,> 100 µM,–,–,> 100 µM,> 100 µM,> 100 µM,> 100 µM,> 100 µM,> 100 µM,> 100 µM,> 100 µM,> 100 µM
COc1ccc2c(c1OC)CO[C@@H]2[C@H]1c2c(cc3c(c2OC)OCO3)CCN1S(=O)(=O)c1cn(C)cn1,–,–,1.57 µM,0.444 µM,6.24 µM,5.2 µM,> 100 µM,1.99 µM,> 100 µM,0.803 µM,> 100 µM,3.9 µM,> 100 µM,5.66 µM,3.43 µM,> 100 µM
